Experimental data taken from patent US20060069132A1, “Azolecarboxamide herbicides” (priority 2004, published 2006).

Key:
barnyardgrass [1] = assay: Test B pre-/postemergence herbicide test; type: in vivo, Echinochloa crus-galli; details: for Plant response rating, Barnyardgrass: preemergence; for Barnyardgrass plant response rating: postemergence, visual rating, scale 0 (no effect) to 100 (complete control)
Summary of the method: (§1)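 Formulation: non-phytotoxic solvent mix with surfactant. Timing: preemergence on seed and postemergence on 2–18 cm plants, applied concurrently. Readout after 13–15 d greenhouse: visual 0–100 control rating against controls.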

Surinam grass = assay: Test B pre-/postemergence herbicide test; type: in vivo, Urochloa decumbens; details: for Plant response rating, Surinam Grass: preemergence; for Surinam Grass plant response rating: postemergence, visual rating, scale 0 (no effect) to 100 (complete control)
Summary of the method: (§2)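 Test chemicals in a non-phytotoxic solvent mixture with surfactant were applied preemergence to seeded species and postemergence to plants 2-18 cm tall (1- to 4-leaf stage); rice and barnyardgrass were also tested in a flooded paddy at the 2-leaf stage. Visual rating versus controls after 13-15 days in greenhouse, scale 0 (no effect) to 100 (complete control).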

cocklebur = assay: Test B pre-/postemergence herbicide test; type: in vivo, Xanthium strumarium; details: for Plant response rating, Cocklebur: preemergence; for Cocklebur plant response rating: postemergence, visual rating, scale 0 (no effect) to 100 (complete control)
Summary of the method: as §1

corn = assay: Test B pre-/postemergence herbicide test; type: in vivo, Zea mays; details: for Plant response rating, Corn: preemergence; for Corn plant response rating: postemergence, visual rating, scale 0 (no effect) to 100 (complete control)
Summary of the method: as §2

large crabgrass = assay: Test B pre-/postemergence herbicide test; type: in vivo, Digitaria sanguinalis; details: for Plant response rating, Crabgrass, Large: preemergence; for Crabgrass, Large plant response rating: postemergence, visual rating, scale 0 (no effect) to 100 (complete control)
Summary of the method: as §2

giant foxtail = assay: Test B pre-/postemergence herbicide test; type: in vivo, Setaria faberi; details: for Plant response rating, Foxtail, Giant: preemergence; for Foxtail, Giant plant response rating: postemergence, visual rating, scale 0 (no effect) to 100 (complete control)
Summary of the method: as §2

lambsquarters = assay: Test B pre-/postemergence herbicide test; type: in vivo, Chenopodium album; details: for Plant response rating, Lambsquarters: preemergence; for Lambsquarters plant response rating: postemergence, visual rating, scale 0 (no effect) to 100 (complete control)
Summary of the method: as §2

morningglory = assay: Test B pre-/postemergence herbicide test; type: in vivo, Ipomoea coccinea; details: for Plant response rating, Morningglory: preemergence; for Morningglory plant response rating: postemergence, visual rating, scale 0 (no effect) to 100 (complete control)
Summary of the method: as §1

pigweed = assay: Test B pre-/postemergence herbicide test; type: in vivo, Amaranthus retroflexus; details: for Plant response rating, Pigweed: preemergence; for Pigweed plant response rating: postemergence, visual rating, scale 0 (no effect) to 100 (complete control)
Summary of the method: as §2

rice [2] = assay: Test B pre-/postemergence herbicide test; type: in vivo, Oryza sativa; details: preemergence
From the text: Seeds selected from barnyardgrass (Echinochloa crus-galli (L.) Beauv.), Surinam grass (Urochloa decumbens (Staph) R. D. Webster, previously named Brachiaria decumbens Stapf), cocklebur (Xanthium strumarium L.), corn (Zea mays L.), large crabgrass (Digitaria sanguinalis (L.) Scop.), giant foxtail (Setaria faberi Herim.), lambsquarters (Chenopodium album L.), morningglory (Ipomoea coccinea L.), pigweed (Amaranthus retroflexus L.), rice (Oryza sativa L.) and velvetleaf (Abutilon theophrasti Medik.) were planted and treated preemergence with test chemicals formulated in a non-phytotoxic solvent mixture which included a surfactant.
At the same time, plants selected from these crop and weed species and also blackgrass (Alopecurus myosuroides Huds.), wheat (Triticum aestivum L.) and wild oat (Avena fatua L.) were treated with postemergence applications of test chemicals formulated in the same manner. Plants ranged in height from 2 to 18 cm (1- to 4-leaf stage) for postemergence treatments. Plant species in the flooded paddy test consisted of rice (Oryza sativa L.), small flower umbrella sedge (Cyperus difformis L.), ducksalad (Heteranthera limosa (Sw.) Willd.) and barnyardgrass (Echinochloa crus-galli (L.) Beauv.) grown to the 2-leaf stage for testing. Treated plants and controls were maintained in a greenhouse for 13 to 15 days, after which time all species were compared to controls and visually evaluated. Plant response ratings, summarized in Table B, are based on a scale of 0 to 100 where 0 is no effect and 100 is complete control. A dash (-) response means no test result.

velvetleaf = assay: Test B pre-/postemergence herbicide test; type: in vivo, Abutilon theophrasti; details: for Plant response rating, Velvetleaf: preemergence; for Velvetleaf plant response rating: postemergence, visual rating, scale 0 (no effect) to 100 (complete control)
Summary of the method: as §2

blackgrass = assay: Test B postemergence herbicide test; type: in vivo, Alopecurus myosuroides; details: postemergence, visual rating, scale 0 (no effect) to 100 (complete control)
Summary of the method: (§3)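 Scale 0–100: zero equals no visible effect, 100 complete control, judged by eye relative to controls. Timing: 13 to 15 days in greenhouse post-treatment. Growth stage at spraying: two leaves (paddy) or one to four leaves, 2–18 cm (postemergence).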

wheat = assay: Test B postemergence herbicide test; type: in vivo, Triticum aestivum; parameters: key to Wheat plant response rating: 0 = no effect, 100 = complete control; details: postemergence, 500 g ai/ha; visual rating, scale 0 (no effect) to 100 (complete control)
Summary of the method: as §3

wild oat = assay: Test B postemergence herbicide test; type: in vivo, Avena fatua; details: postemergence, visual rating, scale 0 (no effect) to 100 (complete control)
Summary of the method: as §3

rice [3] = assay: Test B flooded paddy test; type: in vivo, Oryza sativa; details: 1000 g ai/ha, visual rating, scale 0 to 100 (0 no effect, 100 complete control), 13 to 15 days
Summary of the method: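 Paddy species grown to the 2-leaf stage under flooding; blackgrass sprayed postemergence at 2–18 cm (1- to 4-leaf stage). Plants kept in a greenhouse for 13 to 15 days, then visually rated against controls on 0 (no effect) to 100 (complete control).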

[4] = system: small flower umbrella sedge; assay: Test B flooded paddy test; type: in vivo, Cyperus difformis; details: 1000 g ai/ha, visual rating, scale 0 to 100 (0 no effect, 100 complete control), 13 to 15 days
Summary of the method: as §3

ducksalad = assay: Test B flooded paddy test; type: in vivo, Heteranthera limosa; details: 1000 g ai/ha, visual rating, scale 0 to 100 (0 no effect, 100 complete control), 13 to 15 days
Summary of the method: as §3

barnyardgrass [5] = assay: Test B flooded paddy test; type: in vivo, Echinochloa crus-galli; details: 1000 g ai/ha, visual rating, scale 0 to 100 (0 no effect, 100 complete control), 13 to 15 days
Summary of the method: as §3

[6] = 500 g ai/ha, visual rating 0-100, 0 no effect, 100 complete control
[7] = 125 g ai/ha, 0 to 100 scale, 0 is no effect, 100 is complete control

CCOC(=O)c1ccnc(NC(=O)c2cc(C(C)(C)C)nn2CC)c1 [Compound 157]
Plant response rating, Barnyardgrass (barnyardgrass [1]; [6]): 0
Barnyardgrass plant response rating (barnyardgrass [1]; 125 g ai/ha): 0
Barnyardgrass plant response rating (barnyardgrass [1]; 500 g ai/ha): 20
Plant response rating, Barnyardgrass (barnyardgrass [1]; [7]): 0
Plant response rating, Surinam Grass (Surinam grass; [6]): 0
Surinam Grass plant response rating (Surinam grass; 125 g ai/ha): 20
Surinam Grass plant response rating (Surinam grass; 500 g ai/ha): 20
Plant response rating, Surinam Grass (Surinam grass; [7]): 0
Plant response rating, Cocklebur (cocklebur; [6]): 20
Cocklebur plant response rating (cocklebur; 125 g ai/ha): 10
Cocklebur plant response rating (cocklebur; 500 g ai/ha): 90
Plant response rating, Cocklebur (cocklebur; [7]): 0
Plant response rating, Corn (corn; [6]): 0
Corn plant response rating (corn; 125 g ai/ha): 0
Corn plant response rating (corn; 500 g ai/ha): 0
Plant response rating, Corn (corn; [7]): 0
Plant response rating, Crabgrass, Large (large crabgrass; [6]): 20
Crabgrass, Large plant response rating (large crabgrass; 125 g ai/ha): 0
Crabgrass, Large plant response rating (large crabgrass; 500 g ai/ha): 20
Plant response rating, Crabgrass, Large (large crabgrass; [7]): 0
Plant response rating, Foxtail, Giant (giant foxtail; [6]): 0
Foxtail, Giant plant response rating (giant foxtail; 125 g ai/ha): 30
Foxtail, Giant plant response rating (giant foxtail; 500 g ai/ha): 40
Plant response rating, Foxtail, Giant (giant foxtail; [7]): 0
Plant response rating, Lambsquarters (lambsquarters; [6]): 30
Lambsquarters plant response rating (lambsquarters; 125 g ai/ha): 20
Lambsquarters plant response rating (lambsquarters; 500 g ai/ha): 70
Plant response rating, Lambsquarters (lambsquarters; [7]): 0
Plant response rating, Morningglory (morningglory; [6]): 40
Morningglory plant response rating (morningglory; 125 g ai/ha): 0
Morningglory plant response rating (morningglory; 500 g ai/ha): 30
Plant response rating, Morningglory (morningglory; [7]): 0
Plant response rating, Pigweed (pigweed; [6]): 40
Pigweed plant response rating (pigweed; 125 g ai/ha): 40
Pigweed plant response rating (pigweed; 500 g ai/ha): 80
Plant response rating, Pigweed (pigweed; [7]): 0
Plant response rating, Rice (rice [2]; [6]): 0
Plant response rating, Rice (rice [2]; [7]): 0
Plant response rating, Velvetleaf (velvetleaf; [6]): 0
Velvetleaf plant response rating (velvetleaf; 125 g ai/ha): 50
Velvetleaf plant response rating (velvetleaf; 500 g ai/ha): 80
Plant response rating, Velvetleaf (velvetleaf; [7]): 0
Blackgrass plant response rating (blackgrass; 125 g ai/ha): 10
Blackgrass plant response rating (blackgrass; 500 g ai/ha): 20
Wheat plant response rating (wheat): 20
Oat, Wild plant response rating (wild oat; 125 g ai/ha): 10
Oat, Wild plant response rating (wild oat; 500 g ai/ha): 40
Rice plant response rating (rice [3]): 30
Sedge, Umbrella plant response rating [4]: 40
Ducksalad plant response rating (ducksalad): 0
Barnyardgrass plant response rating (barnyardgrass [5]): 20
